Experimental findings from patent US20250215013A1, “SUBSTITUTED TRICYCLIC COMPOUNDS AS PARP INHIBITORS AND THE USE THEREOF” (IMPACT THERAPEUTICS (SHANGHAI), INC., priority 2022, published 2025) are described below.

The target of test [1] is recombinant poly(ADP-ribose) polymerase 2 (PARP2). The experiment in a line: PARP2 chemiluminescent assay. The format is biochemical. The note with it: inhibition of PARP2 enzyme activity, chemiluminescence.
Test [2] deals with MDA-MB-436 cells. The experiment in a line: Growth inhibition assay against BRCA mutant human breast cancer MDA-MB-436 cell line (CCK-8). In kind it is cell-based. The note with it: proliferation of MDA-MB-436 cells, 7 days.
In test [3] the target is recombinant poly(ADP-ribose) polymerase 1 (PARP1) (Homo sapiens (Human), UniProt P09874).
recombinant poly(ADP-ribose) polymerase 1 (PARP1), sequence (P09874 whole entry): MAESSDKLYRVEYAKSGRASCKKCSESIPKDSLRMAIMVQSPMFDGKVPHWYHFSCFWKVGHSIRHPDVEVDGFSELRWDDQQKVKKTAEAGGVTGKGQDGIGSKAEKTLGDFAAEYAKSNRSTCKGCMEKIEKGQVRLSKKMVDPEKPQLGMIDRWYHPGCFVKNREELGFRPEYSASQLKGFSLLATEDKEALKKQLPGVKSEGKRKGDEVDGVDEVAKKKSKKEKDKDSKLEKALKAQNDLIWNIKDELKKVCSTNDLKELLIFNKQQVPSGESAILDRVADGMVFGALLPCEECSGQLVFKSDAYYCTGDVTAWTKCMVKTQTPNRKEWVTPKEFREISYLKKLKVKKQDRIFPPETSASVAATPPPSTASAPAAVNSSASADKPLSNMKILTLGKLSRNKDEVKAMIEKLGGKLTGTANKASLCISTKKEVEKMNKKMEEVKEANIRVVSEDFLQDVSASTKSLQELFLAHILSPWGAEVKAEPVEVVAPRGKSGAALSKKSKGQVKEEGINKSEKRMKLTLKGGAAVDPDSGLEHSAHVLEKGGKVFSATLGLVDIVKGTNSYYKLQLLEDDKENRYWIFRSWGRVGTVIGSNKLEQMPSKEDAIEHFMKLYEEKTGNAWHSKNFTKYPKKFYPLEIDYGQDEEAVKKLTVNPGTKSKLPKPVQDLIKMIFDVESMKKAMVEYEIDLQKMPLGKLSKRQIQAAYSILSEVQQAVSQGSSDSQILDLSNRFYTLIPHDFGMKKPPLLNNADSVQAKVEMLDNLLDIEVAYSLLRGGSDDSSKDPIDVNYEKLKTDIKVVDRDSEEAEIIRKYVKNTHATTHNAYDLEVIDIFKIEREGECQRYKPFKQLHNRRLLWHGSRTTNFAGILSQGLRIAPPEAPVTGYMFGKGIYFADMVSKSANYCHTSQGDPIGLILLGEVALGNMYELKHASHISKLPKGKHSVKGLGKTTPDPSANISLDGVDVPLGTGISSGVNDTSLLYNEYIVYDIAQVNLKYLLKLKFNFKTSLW

Each structure is given as a SMILES string.

On to `CNC(=O)c1ccc(N2CCN(Cc3ccc4c(c3)[nH]c(=O)c3cn(C)nc34)CC2)c(C)n1` [Example 9, 7-((4-(2-methyl-6-(methylcarbamoyl)pyridin-3-yl)piperazin-1-yl)methyl)-2-methyl-2,5-dihydro-4H-pyrazolo[4,3-c]quinolin-4-one], for which the IC50 – broadly, the concentration that inhibits the measured activity by half – in test [1] is 3280 nM; in test [2] (Homo sapiens, MDA-MB-436, […]) it was 3.2 nM; in test [3], 2.45 nM.
For `CNC(=O)c1ccc(N2CCN(Cc3ccc4c(c3)[nH]c(=O)c3[nH]ccc34)CC2)c(C)n1` [Example 10, 7-((4-(2-methyl-6-(methylcarbamoyl)pyridin-3-yl)piperazin-1-yl)methyl)-3,5-dihydro-4H-pyrrolo[2,3-c]quinolin-4-one], the IC50 in test [1] is greater than 10000 nM; in test [2] (Homo sapiens, MDA-MB-436, […]) it was 15.5 nM; in test [3], 8.24 nM.
As to `CNC(=O)c1ccc(N[C@@H]2CCN(Cc3ccc4c([nH]c(=O)c5occc54)c3F)C2)cn1` [Example 146, (R)-7-((3-((6-(methylcarbamoyl)pyridin-3-yl)amino)pyrrolidin-1-yl)methyl)-6-fluorofuro[2,3-c]quinolin-4(5H)-one], the IC50 in test [2] (Homo sapiens, MDA-MB-436, […]) is greater than 100 nM.
On the same count and under the same terms, as for `CNC(=O)c1ccc(N2CCN(Cc3ccc4c([nH]c(=O)c5occc54)c3F)CC2)cn1` [Example 148, 6-fluoro-7-((4-(6-(methylcarbamoyl)pyridin-3-yl)piperazin-1-yl)methyl)furo[2,3-c]quinolin-4(5H)-one], the figure is 29.2 nM; as for `CNC(=O)c1ccc(N2CCN(Cc3ccc4c([nH]c(=O)c5cocc54)c3F)CC2)cn1` [Example 149, 6-fluoro-7-((4-(6-(methylcarbamoyl)pyridin-3-yl)piperazin-1-yl)methyl)furo[3,4-c]quinolin-4(5H)-one], 74.5 nM; as for `CNC(=O)c1ccc(N2CCN(Cc3ccc4c([nH]c(=O)c5ccoc54)c3F)CC2)cn1` [Example 150, 6-fluoro-7-((4-(6-(methylcarbamoyl)pyridin-3-yl)piperazin-1-yl)methyl)furo[3,2-c]quinolin-4(5H)-one], 11.5 nM.
Same read-out and setting: the value for `CNC(=O)c1ccc(N2CCN(Cc3ccc4c([nH]c(=O)c5c(C)cnn54)c3F)CC2)cn1` [Example 153, 6-fluoro-3-methyl-7-((4-(6-(methylcarbamoyl)pyridin-3-yl)piperazin-1-yl)methyl)pyrazolo[1,5-a]quinoxalin-4(5H)-one] was 23.6 nM; that for `CNC(=O)c1ccc(N2CCN(Cc3ccc4c([nH]c(=O)c5c(C)cnn54)c3F)CC2)c(F)c1` [Example 154, 6-fluoro-7-((4-(2-fluoro-4-(methylcarbamoyl)phenyl)piperazin-1-yl)methyl)-3-methylpyrazolo[1,5-a]quinoxalin-4(5H)-one] was 95.9 nM; that for `CNC(=O)c1ccc(N2CCN(Cc3ccc4c([nH]c(=O)c5c(C)cnn54)c3F)CC2)c(Cl)c1` [Example 155, 6-fluoro-7-((4-(2-chloro-4-(methylcarbamoyl)phenyl)piperazin-1-yl)methyl)-3-methylpyrazolo[1,5-a]quinoxalin-4(5H)-one] was 66.5 nM.
`Cc1cnn2c1c(=O)[nH]c1c(F)c(CN3CCN(c4ccc(C(=O)N[C@@H]5CCOC5)nc4F)CC3)ccc12` [Example 156, (R)-6-fluoro-7-((4-(2-fluoro-6-((tetrahydrofuran-3-yl)carbamoyl)pyridin-3-yl)piperazin-1-yl)methyl)-3-methylpyrazolo[1,5-a]quinoxalin-4(5H)-one]: in test [2] (Homo sapiens, MDA-MB-436, […]), the concentration for half-maximal inhibition (IC50) is 6.08 nM.
`CNc1nccc2cc(N3CCN(Cc4ccc5c([nH]c(=O)c6c(C)cnn65)c4F)CC3)cnc12` [Example 157, 6-fluoro-3-methyl-7-((4-(8-(methylamino)-1,7-naphthyridin-3-yl)piperazin-1-yl)methyl)pyrazolo[1,5-a]quinoxalin-4(5H)-one] came in with an IC50 in test [2] (Homo sapiens, MDA-MB-436, […]) of 42.3 nM.
In test [2] (Homo sapiens, MDA-MB-436, […]), `Cc1cnn2c1c(=O)[nH]c1c(F)c(CN3CCN(c4ccc(-c5ncc[nH]5)nc4)CC3)ccc12` [Example 158, 7-((4-(6-(1H-imidazol-2-yl)pyridin-3-yl)piperazin-1-yl)methyl)-6-fluoro-3-methylpyrazolo[1,5-a]quinoxalin-4(5H)-one] yielded an IC50 of 98.2 nM.
For the compound `CNC(=O)c1ccc(N2CCN(Cc3ccc4c([nH]c(=O)c5c(C)cnn54)c3F)CC2)c(C2CC2)n1` [Example 160, 7-((4-(2-cyclopropyl-6-(methylcarbamoyl)pyridin-3-yl)piperazin-1-yl)methyl)-6-fluoro-3-methylpyrazolo[1,5-a]quinoxalin-4(5H)-one], the IC50 in test [2] (Homo sapiens, MDA-MB-436, […]) was greater than 100 nM.
`CNC(=O)c1ccc(N2CCN(Cc3ccc4c([nH]c(=O)c5c(C)cnn54)c3F)CC2)cc1F` [Example 161, 6-fluoro-7-((4-(3-fluoro-4-(methylcarbamoyl)phenyl)piperazin-1-yl)methyl)-3-methylpyrazolo[1,5-a]quinoxalin-4(5H)-one] came in with an IC50 in test [2] (Homo sapiens, MDA-MB-436, […]) greater than 100 nM.
The same measure, in the same setting: the value for `CNC(=O)c1ccc(N2CCN(Cc3ccc4c([nH]c(=O)c5c(C)cnn54)c3F)CC2)c(C)c1` [Example 162, 6-fluoro-7-((4-(2-methyl-4-(methylcarbamoyl)phenyl)piperazin-1-yl)methyl)-3-methylpyrazolo[1,5-a]quinoxalin-4(5H)-one] was 20.1 nM; that for `Cc1cnn2c1c(=O)[nH]c1c(F)c(CN3CCN(c4ccc(C#N)nc4F)CC3)ccc12` [Example 164, 6-fluoro-7-((4-(2-fluoro-6-cyanopyridin-3-yl)piperazin-1-yl)methyl)-3-methylpyrazolo[1,5-a]quinoxalin-4(5H)-one] was 71.3 nM.
On the same count and under the same terms, as for `CNC(=O)c1ccc(N2CCN(Cc3cc4[nH]c(=O)c5c(C)cnn5c4cc3F)CC2)c(C)n1` [Example 169, 8-fluoro-7-((4-(2-methyl-6-(methylcarbamoyl)pyridin-3-yl)piperazin-1-yl)methyl)-3-methylpyrazolo[1,5-a]quinoxalin-4(5H)-one], the figure is 20.3 nM; as for `CNC(=O)c1ccc(N2CCN(Cc3cc4[nH]c(=O)c5c(C)cnn5c4cc3F)CC2)c(Cl)n1` [Example 170, 8-fluoro-7-((4-(2-chloro-6-(methylcarbamoyl)pyridin-3-yl)piperazin-1-yl)methyl)-3-methylpyrazolo[1,5-a]quinoxalin-4(5H)-one], 18.5 nM; as for `CNC(=O)c1ccc(N2CCN(Cc3ccc4c([nH]c(=O)c5c(C)cnn54)c3C)CC2)c(F)n1` [Example 171, 7-((4-(2-fluoro-6-(methylcarbamoyl)pyridin-3-yl)piperazin-1-yl)methyl)-3,6-dimethylpyrazolo[1,5-a]quinoxalin-4(5H)-one], 14.4 nM.
In test [2] (Homo sapiens, MDA-MB-436, […]), `CNC(=O)c1ccc(N2CCN(Cc3ccc4c([nH]c(=O)c5c(C)cnn54)c3C)CC2)c(C)n1` [Example 172, 7-((4-(2-methyl-6-(methylcarbamoyl)pyridin-3-yl)piperazin-1-yl)methyl)-3,6-dimethylpyrazolo[1,5-a]quinoxalin-4(5H)-one] came in with an IC50 of 42.5 nM.
Take `CNC(=O)c1ccc(N2CCN(Cc3ccc4c([nH]c(=O)c5c(C)cnn54)c3C)CC2)c(Cl)n1` [Example 173, 7-((4-(2-chloro-6-(methylcarbamoyl)pyridin-3-yl)piperazin-1-yl)methyl)-3,6-dimethylpyrazolo[1,5-a]quinoxalin-4(5H)-one]: the IC50 in test [2] (Homo sapiens, MDA-MB-436, […]) came to 23.2 nM.
On the same count and under the same terms, as for `CNC(=O)c1ccc(N2CCN(Cc3ccc4c([nH]c(=O)c5c(C)cnn54)c3Cl)CC2)c(F)n1` [Example 174, 6-chloro-7-((4-(2-fluoro-6-(methylcarbamoyl)pyridin-3-yl)piperazin-1-yl)methyl)-3-methylpyrazolo[1,5-a]quinoxalin-4(5H)-one], the figure is 47 nM.
The same measure, in the same setting: the value for `CNC(=O)c1ccc(N2CCN(Cc3ccc4c([nH]c(=O)c5c(C)cnn54)c3Cl)CC2)c(C)n1` [Example 175, 6-chloro-7-((4-(2-methyl-6-(methylcarbamoyl)pyridin-3-yl)piperazin-1-yl)methyl)-3-methylpyrazolo[1,5-a]quinoxalin-4(5H)-one] was greater than 100 nM; that for `CNC(=O)c1ccc(N2CCN(Cc3ccc4c([nH]c(=O)c5c(C)cnn54)c3Cl)CC2)c(Cl)n1` [Example 176, 6-chloro-7-((4-(2-chloro-6-(methylcarbamoyl)pyridin-3-yl)piperazin-1-yl)methyl)-3-methylpyrazolo[1,5-a]quinoxalin-4(5H)-one] was greater than 100 nM.
In test [2], `CNC(=O)c1ccc(N2CCN(Cc3ccc4c([nH]c(=O)c5c(F)cnn54)c3F)CC2)c(F)n1` [Example 188, 7-((4-(2-fluoro-6-(methylcarbamoyl)pyridin-3-yl)piperazin-1-yl)methyl)-3,6-difluoropyrazolo[1,5-a]quinoxalin-4(5H)-one] displayed an IC50 of 5.27 nM.
For `CNC(=O)c1ccc(N2CCN(Cc3ccc4c([nH]c(=O)c5c(F)cnn54)c3Cl)CC2)c(C)n1` [Example 193, 3-fluoro-7-((4-(2-methyl-6-(methylcarbamoyl)pyridin-3-yl)piperazin-1-yl)methyl)-6-chloropyrazolo[1,5-a]quinoxalin-4(5H)-one], the IC50 in test [2] (Homo sapiens, MDA-MB-436, […]) was 39.7 nM.
With `N#Cc1ccc(N2CCN(Cc3ccc4c([nH]c(=O)c5c(F)cnn54)c3F)CC2)c(F)n1` [Example 195, 7-((4-(2-fluoro-6-cyanopyridin-3-yl)piperazin-1-yl)methyl)-3,6-difluoropyrazolo[1,5-a]quinoxalin-4(5H)-one], half-maximal inhibition in test [2] (Homo sapiens, MDA-MB-436, […]) (IC50) required 8.59 nM.
Same read-out and setting: the value for `CNC(=O)c1ccc(N2CCN(Cc3ccc4c([nH]c(=O)c5c(F)cnn54)c3F)C[C@H]2C)c(F)n1` [Example 196, (R)-7-((4-(2-fluoro-6-(methylcarbamoyl)pyridin-3-yl)-3-methylpiperazin-1-yl)methyl)-3-6-difluoropyrazolo[1,5-a]quinoxalin-4(5H)-one] was 15.4 nM; that for `CNC(=O)c1ccc(N2CCN(Cc3ccc4c([nH]c(=O)c5c(C(C)C)cnn54)c3F)CC2)c(F)n1` [Example 203, 7-((4-(2-fluoro-6-(methylcarbamoyl)pyridin-3-yl)piperazin-1-yl)methyl)-3-isopropyl-6-fluoropyrazolo[1,5-a]quinoxalin-4(5H)-one] was greater than 100 nM.
